Measured values taken from US20220289794A1, “SYNTHETIC ANTIMICROBIAL PEPTIDES” (priority 2019, published 2022).
Converted amounts (≈) assume the structure as drawn. Where two headings read alike, the source gives them in different places. Positions of bridges follow the written chain, without caps; N, C: chain ends. Non-standard residues stand in square brackets, D forms with d. Residues, ends and D or L forms follow the SMILES beside them. d2Nal = N[C@H](Cc1ccc2ccccc2c1)C(=O)O

Legend:
MRSA [1] = tested on: MRSA
[2] = tested on: Bacillus cereus (ATCC-13061)
[3] = tested on: Enterococcus faecium ATCC 700221; conditions: for MIC: ATCC 700221
[4] = tested on: Pseudomonas aeruginosa (ATCC BAA-1744)
[5] = tested on: Enterococcus faecalis ATCC 51575; conditions: for MIC: ATCC 51575
[6] = tested on: Enterococcus faecium ATCC 27270; conditions: for MIC: ATCC 27270
[7] = tested on: Staphylococcus aureus ATCC 29213
[8] = tested on: Enterococcus faecalis ATCC 29212; conditions: for MIC: ATCC 29212
[9] = tested on: Acinetobacter baumannii (ATCC BAA-1605)
[10] = tested on: Klebsiella pneumoniae ATCC 13883
[11] = tested on: Pseudomonas aeruginosa (ATCC 10145)
[12] = tested on: Bacillus subtilis (ATCC-6633)
[13] = tested on: Escherichia coli (ATCC BAA-2452)
[14] = tested on: K. pneumoniae strain ATCC BAA-2470 biofilm
Experimental: Bacteria. The bacterial strains employed in these assays were obtained from the American Type Culture Collection (ATCC). Each strain was propagated as recommended by the ATCC and each strain was stored as a frozen glycerol stock at −80° C.
Bacterial Propagation. […] Following the incubation, the culture was diluted to an optical density 625 nm (OD625) of 0.1 in cation adjusted Mueller Hinton Broth (CAMHB), which is equivalent to 1×10^8 CFU/mL. The culture was further diluted to 1×10^6 CFU/mL which was used for the assay.
Determination of the Temporal Effects of SPL7013 Addition to Inhibit Biofilm Formation. Each strain of bacteria was adjusted to a concentration of 1×10^6 CFU/mL and added to a 96-well flat-bottomed plate in a volume of 100 mL. One-hundred microliters (100 mL) of each compound at 10 concentrations was added in triplicate wells. The cultures were incubated for 24 hours at 37° C. under the appropriate growth conditions for each organism. Following the incubation, the media was removed, and the formed biofilms were fixed for 1 hour at 60° C. Two-hundred microliters (200 mL) of 0.06% crystal violet was added to the wells for 5 to 10 minutes and the wells were then gently washed three times with deionized H2O to remove the crystal violet. Following crystal violet staining 200 mL of 70% ethanol was added to the wells.

[15] = tested on: Streptococcus pneumoniae ATCC 51938; conditions: for MIC: ATCC 51938
[16] = tested on: Streptococcus pneumoniae ATCC 49619; conditions: for MIC: ATCC 49619
[17] = tested on: Pseudomonas aeruginosa (PSA, ATCC 27883); assay: microbe, parasite or virus in culture; conditions: ATCC27883, 24 h
[18] = tested on: Escherichia coli (E. Coli, ATCC 25922); assay: microbe, parasite or virus in culture; conditions: ATCC25922, 24 h, read-out: Escherichia coli (ATCC 25922) MIC, Table 31, [R5W4] (IFX-301), antibiotics alone and PHY-MIX (1:1 w/w)
[19] = tested on: Escherichia coli (E. Coli, ATCC 25922); conditions: for MIC of antibiotic: Escherichia coli (ATCC 25922), antibiotic alone
[20] = tested on: Pseudomonas aeruginosa (PSA, ATCC 27883); assay: Synergy checkerboard assay (FIC index); assay type: cell-based; conditions: Pseudomonas aeruginosa (ATCC 27883)
MRSA (ATCC BAA-1556) = conditions: for MIC of antibiotic: MRSA (ATCC BAA-1556), antibiotic alone
MRSA [21] = assay: In vivo Galleria Mellonella Assay (MRSA infection); conditions: MRSA-infected G. mellonella, after one week
[22] = tested on: Methicillin-resistant Staphylococcus aureus MRSA (ATCC BAA-1556); assay: microbe, parasite or virus in culture; conditions: ATCCBAA1556|MRSA, 24 h, read-out: MRSA (ATCC BAA-1556) MIC, Table 31, [R5W4] (IFX-301), antibiotics alone and PHY-MIX (1:1 w/w)
[23] = tested on: Escherichia coli (ATCC 25922)
[24] = tested on: Pseudomonas aeruginosa (ATCC 27883); conditions: P. aeruginosa ATCC 27883
in vitro = conditions: human, fresh human red blood cells (washed), pH 7.4
[25] = tested on: Methicillin-resistant Staphylococcus aureus MRSA (ATCC BAA-1556)
[26] = tested on: P. aeruginosa (ATCC 10145); assay: Broad-spectrum activity against Gram-Negative bacteria (MIC); assay type: cell-based; conditions: Table 16, Gram-negative panel
E. coli (ATCC BAA-2452) = assay: as above; assay type: cell-based; conditions: Table 16, Gram-negative panel
[27] = tested on: Klebsiella pneumoniae (ATCC BAA-1705); conditions: Table 16, Gram-negative panel
[28] = tested on: A. baumannii (ATCC BAA-1605); assay: Broad-spectrum activity against Gram-Negative bacteria (MIC); assay type: cell-based; conditions: Table 16, Gram-negative panel
[29] = tested on: P. aeruginosa (ATCC BAA-1744); assay: as above; assay type: cell-based; conditions: Table 16, Gram-negative panel
[30] = tested on: Klebsiella pneumoniae (KPC, ATCC BAA-1705); conditions: ATCC BAA-1705
B. subtilis (ATCC-6633) = assay: Broad-spectrum activity against Gram-Positive bacteria (MIC); assay type: cell-based; design: unit not given here
B. cereus (ATCC-13061) = assay: as above; assay type: cell-based; design: unit not given here

## N=C(N)NCCC[C@@H]1NC(=O)[C@H](CCCNC(=N)N)NC(=O)[C@H](CCCNC(=N)N)NC(=O)[C@@H]2CSSC[C@H](NC(=O)[C@H](CCCNC(=N)N)NC1=O)C(=O)N[C@@H](Cc1c[nH]c3ccccc13)C(=O)N[C@@H](Cc1c[nH]c3ccccc13)C(=O)N[C@@H](Cc1c[nH]c3ccccc13)C(=O)N[C@@H](Cc1c[nH]c3ccccc13)C(=O)N2 [[R3CW4CR] (IFX-330)] (cyclo(RRRCWWWWCR); disulfide 4-9)
MRSA [1]
  MIC: 8 µg/mL (≈ 5.08 µM)
E. coli
  MIC: 32 µg/mL (≈ 20.3 µM)
[2]
  MIC: 16 µg/mL (≈ 10.2 µM)
[3]
  MIC: 8 µg/mL (≈ 5.08 µM)
[4]; ATCC BAA-1744
  MIC: 32 µg/mL (≈ 20.3 µM)
[5]
  MIC: 32 µg/mL (≈ 20.3 µM)
PSA
  MIC: 128 µg/mL (≈ 81.3 µM)
KPC
  MIC: 32 µg/mL (≈ 20.3 µM)
[6]
  MIC: 8 µg/mL (≈ 5.08 µM)
[7]
  MIC: 16 µg/mL (≈ 10.2 µM)
[8]
  MIC: 32 µg/mL (≈ 20.3 µM)
[9]; ATCC BAA-1605
  MIC: 32 µg/mL (≈ 20.3 µM)
[10]; ATCC 13883
  MIC: 32 µg/mL (≈ 20.3 µM)
[11]; ATCC 10145
  MIC: 64 µg/mL (≈ 40.7 µM)
[12]
  MIC: 8 µg/mL (≈ 5.08 µM)
[13]; ATCC BAA-2452
  MIC: 32 µg/mL (≈ 20.3 µM)

## CN(C)c1cc(NC(=O)CNC(C)(C)C)c(O)c2c1C[C@H]1C[C@H]3[C@H](N(C)C)C(O)=C(C(N)=O)C(=O)[C@@]3(O)C(O)=C1C2=O [Tigecycline, reference compound]
[14]; K. pneumoniae, two of the lowest concentrations, 0.2 mg/mL and 0.1 mg/mL
  change of biofilm formation: increase in biofilm formation

## N=C(N)NCCC[C@@H]1NC(=O)[C@H](CCCNC(=N)N)NC(=O)[C@H](CCCNC(=N)N)NC(=O)[C@H](CCCCN)NC(=O)[C@H](Cc2c[nH]c3ccccc23)NC(=O)[C@H](Cc2c[nH]c3ccccc23)NC(=O)[C@H](Cc2c[nH]c3ccccc23)NC(=O)[C@H](Cc2c[nH]c3ccccc23)NC(=O)[C@H](CCCNC(=N)N)NC(=O)[C@H](CCCNC(=N)N)NC1=O [[R5W4K] (IFX-315)] (cyclo(RRRRRWWWWK))
MRSA [1]
  MIC: 8 µg/mL (≈ 4.84 µM)
[15]
  MIC: 2 µg/mL (≈ 1.21 µM)
E. coli
  MIC: 16 µg/mL (≈ 9.67 µM)
[2]
  MIC: 16 µg/mL (≈ 9.67 µM)
[3]
  MIC: 8 µg/mL (≈ 4.84 µM)
[4]; ATCC BAA-1744
  MIC: 16 µg/mL (≈ 9.67 µM)
[5]
  MIC: 32 µg/mL (≈ 19.3 µM)
PSA
  MIC: 16 µg/mL (≈ 9.67 µM)
KPC
  MIC: 32 µg/mL (≈ 19.3 µM)
[16]
  MIC: 2 µg/mL (≈ 1.21 µM)
[6]
  MIC: 8 µg/mL (≈ 4.84 µM)
[7]
  MIC: 8 µg/mL (≈ 4.84 µM)
[8]
  MIC: 16 µg/mL (≈ 9.67 µM)
[9]; ATCC BAA-1605
  MIC: 32 µg/mL (≈ 19.3 µM)
[10]; ATCC 13883
  MIC: 8 µg/mL (≈ 4.84 µM)
[11]; ATCC 10145
  MIC: 32 µg/mL (≈ 19.3 µM)
[12]
  MIC: 8 µg/mL (≈ 4.84 µM)
[13]; ATCC BAA-2452
  MIC: 25 µg/mL (≈ 15.1 µM)

## CN(C)[C@@H]1C(O)=C(C(N)=O)C(=O)[C@@]2(O)C(O)=C3C(=O)c4c(O)cccc4[C@@](C)(O)[C@H]3C[C@@H]12 [tetracycline, reference compound]
[17]; read-out: Pseudomonas aeruginosa (ATCC 27883) MIC, Table 29, [R6W4] (IFX-318), antibiotics alone and PHY-MIX (1:1 w/w)
  MIC: 32 µg/mL (≈ 72 µM)
[17]; read-out: Pseudomonas aeruginosa (ATCC 27883) MIC, Table 31, [R5W4] (IFX-301), antibiotics alone and PHY-MIX (1:1 w/w)
  MIC: 32 µg/mL (≈ 72 µM)
[18]
  MIC: 8 µg/mL (≈ 18 µM)
[19]
  MIC of antibiotic: 8 µg/mL
[19]; Table 25
  MIC of antibiotic: 8 µg/mL
[19]; Table 26
  MIC of antibiotic: 8 µg/mL
[20]; antibiotic alone
  MIC of antibiotic: 32 µg/mL
[20]; Table 26, antibiotic alone
  MIC of antibiotic: 32 µg/mL
[20]; Table 27, antibiotic alone
  antibiotic MIC: 32 µg/mL
MRSA (ATCC BAA-1556)
  MIC of antibiotic: 0.25 µg/mL
MRSA (ATCC BAA-1556); Table 25
  MIC of antibiotic: 0.250 µg/mL
MRSA [21]
  larvae killed: 56.3%
[22]
  MIC: 0.25 µg/mL (≈ 0.563 µM)

## N=C(N)NCCC[C@@H]1NC(=O)[C@@H](CCCNC(=N)N)NC(=O)[C@H](CCCNC(=N)N)NC(=O)[C@@H](Cc2ccc3ccccc3c2)NC(=O)[C@@H](Cc2ccc3ccccc3c2)NC(=O)[C@H](Cc2c[nH]c3ccccc23)NC(=O)[C@@H](CCCNC(=N)N)NC1=O [IFX-111, c[Arg-arg-Arg-arg-Trp-naI-naI]] (cyclo(R[dR]R[dR]W[d2Nal][d2Nal]))
[23]; ATCC 25922
  MIC E. coli ATCC 25922: 6.2 µg/mL (≈ 5.14 µM)
[24]
  MIC P. aeruginosa ATCC 27883: 12.5 µg/mL (≈ 10.4 µM)
[14]; ATCC BAA-2470
  inhibition of biofilm formation: ≤ 23%
In vitro
  HC50 at 0.5 h: 205 µg/mL
S. aureus ATCC 29213; ATCC 29213
  MIC S. aureus ATCC 29213: 1.5 µg/mL (≈ 1.24 µM)
[25]; ATCC BAA-1556
  MIC MRSA ATCC BAA-1556: 1.5 µg/mL (≈ 1.24 µM)

## c[Arg-Arg-arg-arg-naI-Trp-naI] [IFX-135]
[26]
  MIC P. aeruginosa (ATCC 10145): 25 µg/mL
E. coli (ATCC BAA-2452)
  MIC E. coli (ATCC BAA-2452): 12.5 µg/mL
[23]; E. coli ATCC 25922
  MIC E. coli ATCC 25922: 8 µg/mL
[24]
  MIC P. aeruginosa ATCC 27883: 32 µg/mL
MRSA [1]
  MIC: 2 µg/mL
[27]
  MIC K. pneumonia (ATCC BAA-1705): 12.5 µg/mL
[15]
  MIC: 16 µg/mL
[15]; S. pneumoniae ATCC 51938
  Broad-spectrum activity S. pneumoniae (ATCC 51938): 12.5
E. coli; Table 36, E. coli ATCC 25922
  MIC: 8 µg/mL
[2]
  MIC: 8 µg/mL
[3]
  MIC: 4 µg/mL
[3]; E. faecium ATCC 700221
  Broad-spectrum activity E. faecium (ATCC 700221): 3.1
[4]; Table 36, Pseudomonas aeruginosa (ATCC BAA-1744)
  MIC: 16 µg/mL
[28]
  MIC A. baumannii (ATCC BAA-1605): 12.5 µg/mL
[5]
  MIC: 16 µg/mL
[5]; E. faecalis ATCC 51575
  Broad-spectrum activity E. faecalis (ATCC 51575): 12.5
PSA; Table 36, P. aeruginosa ATCC 27883
  MIC: 32 µg/mL
KPC; Table 36, Klebsiella pneumoniae (ATCC BAA-1705)
  MIC: 16 µg/mL
[16]
  MIC: 16 µg/mL
[16]; S. pneumoniae ATCC 49619
  Broad-spectrum activity S. pneumoniae (ATCC 49619): 12.5
[6]
  MIC: 4 µg/mL
[6]; E. faecium ATCC 27270
  Broad-spectrum activity E. faecium (ATCC 27270): 3.1
[7]
  MIC: 2 µg/mL
[19]; ATCC 25922
  IFX135 MIC: 8 µg/mL
[29]
  MIC P. aeruginosa (ATCC BAA-1744): 12.5 µg/mL
[8]
  MIC: 8 µg/mL
[8]; E. faecalis ATCC 29212
  Broad-spectrum activity E. faecalis (ATCC 29212): 6.2
[30]
  IFX135 MIC: 16 µg/mL
B. subtilis (ATCC-6633)
  Broad-spectrum activity B. subtilis (ATCC-6633): 1.5
[9]; Table 36, Acinetobacter baumannii (ATCC BAA-1605)
  MIC: 16 µg/mL
S. aureus ATCC 29213; S. aureus ATCC 29213
  MIC S. aureus ATCC 29213: 1.5 µg/mL
[10]; Table 16, Gram-negative panel
  MIC K. pneumonia (ATCC 13883): 50 µg/mL
[10]; Table 36, Klebsiella pneumonia (ATCC 13883)
  MIC: 64 µg/mL
[11]; Table 36, Pseudomonas aeruginosa (ATCC 10145)
  MIC: 32 µg/mL
[25]; MRSA ATCC BAA-1556
  MIC MRSA ATCC BAA-1556: 1.5 µg/mL
[20]; Table 27, peptide alone
  IFX135 MIC: 32 µg/mL
MRSA (ATCC BAA-1556); ATCC BAA-1556
  IFX135 MIC: 2 µg/mL
[12]
  MIC: 2 µg/mL
[13]; Table 36, Escherichia coli (ATCC BAA-2452)
  MIC: 16 µg/mL
B. cereus (ATCC-13061)
  Broad-spectrum activity B. cereus (ATCC-13061): 6.2
